Assay results as given in US20060234955A1, “Cardiac glycosides to treat cystic fibrosis and other il-8 dependent disorders” (priority 2002, published 2006).

Legend:
[1] = system: IL-8 from CFTE cells; test: Hypersecretion of IL-8 from CFTE cells; settings: qualitative
[2] = system: cat; settings: intravenous administration, Merck Index; cited from earlier work
[3] = Solubility in ethanol
[4] = system: NFκB; settings: 1 μM concentration; variety of cultured cancer cells; cited from earlier work
[5] = system: cat; test: LD50, intravenous administration to the cat (Merck Index)

Row | SMILES | hypersecretion of IL-8 from CFTE cells [1] | LD50 [2] [mg/kg] | solubility [3] | TNFα-dependent activation of NFκB [4] | LD-50-defined toxicity (concentration) ([5]; as restated) [µM] | concentration corresponding to LD50 ([5]; assuming body weight is all water and uniform distribution) [nM]
1 | CCCn1c(=O)c2[nH]c(C3CCCC3)nc2n(CCC)c1=O [CPX, 1,3-Dipropyl-8-Cyclopentyl xanthine] | suppressed |  |  |  |  | 
2 | CO[C@H]1C[C@H](O[C@H]2CC[C@@]3(C)[C@H](CC[C@@H]4[C@@H]3CC[C@]3(C)[C@@H](C5=CC(=O)OC5)[C@@H](OC(C)=O)C[C@]43O)C2)O[C@@H](C)[C@@H]1O [Compound I] |  | 0.3 | soluble in ethanol | suppresses | ≥ 0.6 | 600
